Converted amounts (≈) assume the structure as drawn.
conditions: buffer; pH 7.4; 200.0 µM

SMILES	solubility kinetic [µg/mL]
Cc1ccc(Cl)c2sc(NC(=O)C3=COCCO3)nc12	1.1 (≈ 3.54 µM)
Cc1nc(NC(=O)c2ccccc2O)sc1C	10.2 (≈ 41.1 µM)
O=C(CNC(=O)c1ccccc1F)Nc1ccc2c(c1)OCO2	23.2 (≈ 73.4 µM)
CCOC(=O)c1c(N)c2cc([N+](=O)[O-])cnc2n1C	1.9 (≈ 7.19 µM)
CCOc1cc(N2CCOCC2)c(OCC)cc1NC(=O)C(C)(C)C	> 52.6
CCC(=O)Nc1ccc2c(c1)ncn2CCc1ccccc1	> 44
Cc1[nH]c2ccc(C(=O)NCCCN3CCCC3)cc2c1C	> 44.9
Cc1ccc(OCC(=O)N(Cc2ccccc2)c2ccccn2)cc1	49.6 (≈ 149 µM)
N#Cc1ccc(NC(=S)NCCN2CCOCC2)cc1	> 43.6
CC(C)CNCC1OCc2ccccc2CO1.Cl	> 40.8
Cc1ccc(C(=O)Nc2ccncc2)c(Cl)c1	> 37
CCOc1ncccc1C(=O)Nc1ccc(C)cn1	31.8 (≈ 124 µM)
CCCCN(C(=O)c1cc(-c2ccncc2)nc2ccccc12)c1c(N)n(CC(C)C)c(=O)[nH]c1=O	10 (≈ 20.6 µM)
CN(Cc1c(F)cccc1Cl)C(=O)C1=CC=CN2CCS(=O)(=O)N=C12	> 57.6
CCC(C)C(=O)Nc1ccc(S(=O)(=O)Nc2nccs2)cc1 (centres undefined)	> 50.9
N#CCC(=O)Nc1ccc(C(=O)OCC(=O)NC(=O)Nc2ccc3c(c2)OCCO3)cc1	10.5 (≈ 24 µM)
CCCCNC(=O)CCc1nc2cccnc2n1Cc1ccccc1	> 50.5
C#CCOC(=O)C[N+](C)(C)CC#Cc1ccccc1.[Cl-]	43.1
CC(=O)CSc1nnc2cc(C)c3ccccc3n12	> 40.7
O=C(O)CNS(=O)(=O)c1c(Cl)cccc1Cl	> 42.6
Cc1cccc(NC(=S)N(C)C2CCCCC2)c1	30.1 (≈ 115 µM)
Cc1cc(C)c2cc(C(=O)N3CCC(Cc4ccccc4)CC3)[nH]c2c1	< 0.4
CN1CCN(Cc2cc3c(cc2[N+](=O)[O-])OCO3)CC1	38.3 (≈ 137 µM)
CCn1c(NC(C)=O)c(-c2ccccc2Cl)c(=O)c2ccccc21	49.5 (≈ 145 µM)
Cc1ccc2[nH]c(C)c(CCNCc3ccco3)c2c1.Cl	42.9
COc1ccc(NC(=S)Nc2cnc3ccccc3c2)c(OC)c1	45.1 (≈ 133 µM)

Second part, the compound after the results:

solubility kinetic [µg/mL]	SMILES
9.4 (≈ 26.7 µM)	O=C(NC(=S)Nc1ccccc1O)c1cncc(Br)c1
2.8 (≈ 6.2 µM)	Cc1ccc(S(=O)(=O)N2CCCCC2)cc1C(=O)NCc1ccc(S(N)(=O)=O)cc1
> 50	Cc1ccc(S(=O)(=O)NC(Cc2ccccc2)C(=O)O)cc1C (centres undefined)
> 48.1	COC(=O)c1cccc(NC(=O)CSc2nnc(C)n2C)c1
> 45.1	O=C(Cc1c(F)cccc1Cl)NCCN1CCOCC1
8.9 (≈ 28.9 µM)	Cc1ccc(NC(=O)CCN2C(=O)c3ccccc3C2=O)cc1
> 49.1	CCc1ccc(OCCCC(=O)Nc2cccc(C(=O)O)c2)cc1
> 43.1	CCOC(=O)Cn1cc(C(=O)C(C)(C)C)c2ccccc21
23.8 (≈ 64.9 µM)	CC(=O)Nc1ccc(S(=O)(=O)NC2CCS(=O)(=O)C2)cc1Cl (centres undefined)
> 45.2	CNC(=O)c1ccc(NC(=O)CCc2c(C)noc2C)cc1
26.4 (≈ 81.6 µM)	COc1cc(C)c(CN2CCC(Cc3ccccc3)CC2)cc1C
0.7 (≈ 2.35 µM)	Cc1ccc(N/C=C(\C#N)S(=O)(=O)c2ccccc2)cc1
24.6 (≈ 84.2 µM)	O=[N+]([O-])c1ccc(O)c(C=Nc2cccc3ccccc23)c1
> 42.8	CNS(=O)(=O)c1ccc(N2CCCC2)c([N+](=O)[O-])c1
54 (≈ 149 µM)	CCC(=O)NC1(C(F)(F)F)C(=O)Nc2c1c(=O)[nH]c(=O)n2CC(C)C (centres undefined)
> 49	NC(=O)COC(=O)c1cccc(S(=O)(=O)N2CCCCC2)c1
18.2 (≈ 36.7 µM)	CCN(c1ccccc1)S(=O)(=O)c1cc(C(=O)NCC(c2ccco2)N2CCCCC2)ccc1C (centres undefined)

solubility kinetic [µg/mL]	SMILES
53.1 (≈ 145 µM)	O=C(C1=C(O)C(=O)N(c2ncccn2)C1c1ccc(F)cc1)c1ccco1 (centres undefined)
< 0.7	O=C(Nc1ccc2c(c1)OCCO2)c1ccc(Br)cc1
> 42.4	CCN(C(=S)NC(=O)C1CCCC1)C1CCCCC1
51.6 (≈ 147 µM)	CC(=O)C1=C(O)C(=O)N(Cc2ccccc2)C1c1ccc(N(C)C)cc1 (centres undefined)
> 38.1	O=C(O)C1Cc2ccccc2CN1C(=O)CCl (centres undefined)
0.8 (≈ 2.77 µM)	O=C(NC(=S)Nc1cccc(Cl)c1Cl)C1CC1
43.9 (≈ 134 µM)	CCOC(=O)C1=C(c2ccccc2)NC(=O)NC1c1ccsc1 (centres undefined)
> 36.2	CC(=O)Nc1ccc2nc(-c3ccco3)[nH]c2c1
41.4 (≈ 129 µM)	COCC(=O)Nc1cc(C)cn(Cc2ccccc2Cl)c1=O
> 53.3	CC(NC(=O)CN1CCN(Cc2cccc(F)c2)CC1)c1ccccc1 (centres undefined)
20.2 (≈ 94.8 µM)	O=C(c1c[nH]c2ccccc12)C(F)(F)F
> 43.9	c1ccc2c(SCc3cn4ccccc4n3)nncc2c1
46.2 (≈ 137 µM)	O=C(COC(=O)c1cccc(O)c1)Nc1ccc(OC(F)F)cc1
45.4 (≈ 144 µM)	CCOc1ccc(Cc2onc3c2C(=O)CCC3)cc1OCC
1.7 (≈ 5.88 µM)	CCOC(=O)c1[nH]c2ccccc2c1NC(=O)NC(C)C
11.3 (≈ 36.6 µM)	Cc1nc(Cl)sc1C(=O)Nc1ccc(C(C)(C)C)cc1

Source: PubChem BioAssay AID1996
